Experimental data taken from PMC13499021, “Cellular Assays for Dynamic Quantification of Deubiquitinase Activity and Inhibition” (Journal of molecular biology, 2023).
pIC50: −log10 of the molar value. Where “and” joins values, the source holds several entries; their conditions need not be identical. Equal values may be shown once. Read-outs that look alike come from different tables or passages of the source. Where a SMILES comes first, the peptide text is derived from it. The star is where a group is joined. Cbz = O=C(OCc1ccccc1)*

Columns and labels:
[1] = test system: GFPNb^E103Q-USP7; assay type: cell-based
[2] = test system: GFPNb^WT-USP7; assay type: cell-based
[3] = molecular target: R-EGFP reporter (enhanced green fluorescent protein with an N-terminal arginine, made as the Ub-R-EGFP fusion)
[4] = test system: SARS2-PL^pro; assay type: cell-based
[5] = test system: homologous enzyme (PL^pro) from MERS; settings: cited from earlier work
[6] = test system: SARS2 PL^pro; settings: read-out: inhibitory concentrations (IC50); cited from earlier work
[7] = test system: homologous enzyme (PL^pro) from NL63; settings: cited from earlier work
[8] = test system: GFPNb^R35Q-USP28; assay type: cell-based
[9] = molecular target: T1, GFPNb^R35Q-USP7 (Homo sapiens, UniProt Q93009); assay type: cell-based
T1 sequence (Q93009 with tags, fused parts or gaps limits assumed, stated change not applied): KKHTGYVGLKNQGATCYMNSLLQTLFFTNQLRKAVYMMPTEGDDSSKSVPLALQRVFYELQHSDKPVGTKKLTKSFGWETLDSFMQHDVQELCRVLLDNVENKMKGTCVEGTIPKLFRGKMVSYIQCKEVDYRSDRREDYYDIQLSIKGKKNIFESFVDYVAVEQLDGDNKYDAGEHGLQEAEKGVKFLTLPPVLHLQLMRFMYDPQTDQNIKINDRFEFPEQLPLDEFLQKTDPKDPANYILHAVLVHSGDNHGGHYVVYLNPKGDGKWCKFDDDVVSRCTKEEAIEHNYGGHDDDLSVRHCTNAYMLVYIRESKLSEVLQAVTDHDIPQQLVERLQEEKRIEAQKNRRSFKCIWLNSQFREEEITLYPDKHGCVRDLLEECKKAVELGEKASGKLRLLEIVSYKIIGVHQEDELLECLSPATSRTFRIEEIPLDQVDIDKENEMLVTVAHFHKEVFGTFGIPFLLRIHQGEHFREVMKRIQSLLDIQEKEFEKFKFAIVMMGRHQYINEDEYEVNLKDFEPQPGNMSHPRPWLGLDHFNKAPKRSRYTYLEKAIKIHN

[10] = test system: KF LSCC cells; design: method as in PMID 34636321; settings: cited from earlier work
[11] = test system: proteasome; assay type: cell-based
[12] = test system: MM.1S cells; settings: read-out: IC50, block of proliferation; cited from earlier work
[13] = test system: USP7; settings: cited from earlier work
[14] = test system: GFPNb^R35Q-USP7; assay type: cell-based
[15] = test system: GFPNb^R35Q-USP7; assay type: cell-based; settings: read-out: cellular IC50
[16] = test system: purified USP7; settings: purified USP7 and Ub-AMC substrate; reported; cited from earlier work
[17] = molecular target: T1, GFPNb^R35Q-USP7; assay type: cell-based; remark: listed apart in the source
[18] = 10 μM compound for 16 h, USP7 fused to WT GFP nanobody

## CC(=O)c1cc([N+](=O)[O-])c(Sc2ccc(F)cc2F)s1 [P22077]
[1]
  change in EGFP levels: no inhibitory activity
[2]; [18]
  change in EGFP fluorescence levels: no inhibitory activity

## GFPNb E103Q-mCherry-USP7 fusion
[3]
  relative USP7 activity (EGFP stabilization, flow cytometry) in transfected 293T-Ub-R-C3 cells, against the WT nanobody fusion (fold less than the WT Nb fusion): 3

## GRL0617
[4]
  start of time dependent decrease in EGFP signal post-treatment: 2 h
[5]
  activity against homologous enzyme: inactive
[6]
  pIC50: 5.64 to 5.68
[7]
  activity against homologous enzyme: inactive

## GFPNb R35Q-mCherry-USP7 fusion
[3]
  relative USP7 activity (EGFP stabilization, flow cytometry) in transfected 293T-Ub-R-C3 cells, against the WT nanobody fusion (fold less than the WT Nb fusion): 2

## Cc1ccc2c(N)c(C(=O)N[C@H]3CCc4cc(N5CC6CCC(C5)N6)ccc4C3)sc2n1 [FT206]
[8]
  dose-dependence of EGFP degradation rate: little dose-dependence
  inhibition: potent inhibition
  rate of degradation of the EGFP reporter: fastest degradation
[8]; read-out: cellular IC50
  pIC50: 6.98 and ~6.98
[9]
  inhibition: no inhibition
[10]
  proliferation of KF LSCC cells: inhibit proliferation

## GFPNb R35Q-mCherry (VHH)
[3]
  relative stabilization of EGFP in 293T-Ub-R-C3 cells (flow cytometry), WT nanobody-mCherry normalized to 1 (fold decrease against the WT nanobody): 50

## GFPNb E103Q-mCherry (VHH)
[3]
  relative stabilization of EGFP in 293T-Ub-R-C3 cells (flow cytometry), WT nanobody-mCherry normalized to 1 (fold decrease against the WT nanobody): 100

## CC(C)C[C@@H](C=O)NC(=O)[C@H](CC(C)C)NC(=O)[C@H](CC(C)C)NC(=O)OCc1ccccc1 [MG132] (Cbz-Leu-Leu-Leu-aldehyde)
[11]
  elevation of EGFP level over baseline: over 50 fold

## O=C(C[C@@H](C(F)F)n1ccc(F)n1)N1CCC(O)(Cn2cnc3c(cnn3-c3ccc(F)cc3)c2=O)CC1 [FT671]
[12]
  pIC50: 7.48
[1]
  change in EGFP levels: substantial decrease
[13]
  pIC50: 7.28
[14]
  change in EGFP levels: substantial decrease
[15]
  pIC50: 7.85
[2]
  change in EGFP fluorescence levels: weak (if any) decrease

## XL177A
[1]
  change in EGFP levels: substantial decrease
[16]
  pIC50: 9.47
[17]
  change in EGFP levels: substantial decrease
[9]; read-out: cellular IC50
  pIC50: 6.72
[2]; [18]
  change in EGFP fluorescence levels: weak (if any) decrease
